Source: patent publication US10155741B2, “Pyridine or pyrimidine derivatives” (Hoffmann-La Roche Inc., priority 2015, dated 2018)

Test system: not given
Test: not given
Conditions: not given

| melting point | Structure (SMILES) |
| --- | --- |
| 178 °C | CC(C)c1ncncc1-c1cc(C(=O)NC(C)(C)C)cc(-c2ccc(F)c(F)c2)n1 [Example 7, N-tert-Butyl-2-(3,4-difluorophenyl)-6-(4-propan-2-yl-pyrimidin-5-yl)-pyridine-4-carboxamide] |

Target: T1, human EAAT3 (Homo sapiens, UniProt P43005)
T1 construct: expressed in transfected cells
T1 sequence (P43005 1-524): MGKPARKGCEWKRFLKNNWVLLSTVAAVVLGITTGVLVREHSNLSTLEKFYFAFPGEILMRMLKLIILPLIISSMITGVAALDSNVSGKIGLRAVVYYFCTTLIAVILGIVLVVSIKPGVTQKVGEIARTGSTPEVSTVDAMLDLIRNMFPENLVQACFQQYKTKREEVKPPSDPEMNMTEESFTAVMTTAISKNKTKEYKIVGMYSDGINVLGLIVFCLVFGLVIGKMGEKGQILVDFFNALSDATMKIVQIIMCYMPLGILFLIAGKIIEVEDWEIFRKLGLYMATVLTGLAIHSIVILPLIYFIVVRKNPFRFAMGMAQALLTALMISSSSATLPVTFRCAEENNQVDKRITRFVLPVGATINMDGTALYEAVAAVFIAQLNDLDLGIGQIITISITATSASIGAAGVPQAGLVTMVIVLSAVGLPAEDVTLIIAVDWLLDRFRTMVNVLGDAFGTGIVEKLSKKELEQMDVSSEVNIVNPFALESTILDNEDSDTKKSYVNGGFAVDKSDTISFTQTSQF
Test: FLIPR Membrane Potential (FMP) assay, antagonist potency at human EAAT3
Type: cell-based
Conditions: HEK-293 cells stably expressing human EAAT3; L-glutamate as agonist at EC80; antagonist applied 15 min before; Kb by Cheng-Prusoff equation
Procedure: The FLIPR Membrane Potential (FMP) Assay
HEK-293 cells stably expressing human EAAT3 were seeded at 55 000 cells/well in growth medium (DMEM glutamate free (Invitrogen 11960-044), 1% Pen Strep (10 ml/l GIBCO BRL No 15140-023), 10% FCS non dialysed heat inactivated, 5 mg/l puromycin) in poly-D-lysine treated 96-well black microtiter plates with clear-bottom. After 24 h, the growth medium was removed and 100 μl/well of Krebs buffer (140 mM NaCl, 4.7 mM KCl, 2.5 mM CaCl2, 1.2 mM MgCl2, 11 mM HEPES, 10 mM D-glucose, pH=7.4) added. The cells were then loaded by adding 100 μl/well FMP assay dye (FLIPR Membrane Potential assay reagent, Molecular Devices). The 96-well plates were then incubated at 37° C. for 1 h. The depolarization of the cells will cause more dye to enter in the cells, where it will bind to intracellular proteins and lipids and cause an increase in the fluorescence signal. Antagonist potency at human EAAT3 was determined by using L-glutamate as agonist at a concentration which gives 80% of the maximum response. The antagonists were applied 15 min before the application of the agonist L-glutamate. The assays were performed at room temperature and measurements done by using a Fluorometric Imaging Plate Reader (FLIPR, Molecular Devices) and filter #2. Responses were measured as peak increase in fluorescence minus basal (i.e. fluorescence without addition of L-glutamate). Kb was determined using the Cheng-Prusoff equation Kb=IC50/[1+(A/EC50)], where IC50 is the concentration of the antagonist producing 50% inhibition, A is the concentration of the agonist against which the IC50 is being determined (at EC80) and EC50 is the concentration of the agonist producing 50% […].

| Kb | Structure (SMILES) |
| --- | --- |
| 120 nM | CCC(C)(C)NC(=O)c1cc(-c2ccc(F)cc2)nc(-c2cncnc2C(C)C)c1 [Example 18, 2-(4-Fluorophenyl)-N-(2-methylbutan-2-yl)-6-(4-propan-2-yl-pyrimidin-5-yl)-pyridine-4-carboxamide] |
| 180 nM | CCc1ncncc1-c1cc(C(=O)NC(C)(C)C)cc(-c2ccc(F)cc2)n1 [Example 19, N-tert-Butyl-2-(4-ethyl-pyrimidin-5-yl)-6-(4-fluorophenyl)-pyridine-4-carboxamide] |
| 480 nM | Cc1ncncc1-c1cc(C(=O)NC(C)(C)C)cc(-c2ccc(F)cc2)n1 [Example 20, N-tert-Butyl-2-(4-fluorophenyl)-6-(4-methylpyrimidin-5-yl)-pyridine-4-carboxamide] |
| 560 nM | CC(C)(C)NC(=O)c1cc(-c2ccc(F)cc2)nc(-c2cncnc2C2CC2)c1 [Example 21, N-tert-Butyl-2-(4-cyclopropylpyrimidin-5-yl)-6-(4-fluorophenyl)-pyridine-4-carboxamide] |
| 63 nM | CC(C)(C)NC(=O)c1cc(-c2ccc(F)cc2)nc(-c2cncnc2C(C)(C)C)c1 [Example 22, N-tert-Butyl-2-(4-tert-butyl-pyrimidin-5-yl)-6-(4-fluorophenyl)-pyridine-4-carboxamide] |
| 140 nM | CC(C)(C)NC(=O)c1cc(-c2ccc(Cl)cc2)nc(-c2cncnc2C(C)(C)C)c1 [Example 23, N-tert-Butyl-2-(4-tert-butylpyrimidin-5-yl)-6-(4-chlorophenyl)-pyridine-4-carboxamide] |
| 290 nM | CC(C)(C)NC(=O)c1cc(-c2ccc(C(F)(F)F)cc2)nc(-c2cncnc2C(C)(C)C)c1 [Example 24, N-tert-Butyl-2-(4-tert-butyl-pyrimidin-5-yl)-6-[4-(trifluoromethyl)-phenyl]-pyridine-4-carboxamide] |
| 350 nM | CC(C)c1ccncc1-c1cc(C(=O)NC(C)(C)C)cc(-c2ccc(C(F)(F)F)cc2)n1 [Example 25, N-tert-Butyl-2-(4-propan-2-yl-pyridin-3-yl)-6-[4-(trifluoromethyl)-phenyl]-pyridine-4-carboxamide] |
| 310 nM | CC(C)c1ccncc1-c1cc(C(=O)NC(C)(C)C)cc(-c2ccc(Cl)cc2)n1 [Example 26, N-tert-Butyl-2-(4-chlorophenyl)-6-(4-propan-2-yl-pyridin-3-yl)-pyridine-4-carboxamide] |
| 170 nM | CC(C)c1ccncc1-c1cc(C(=O)NC(C)(C)C)cc(-c2ccc(F)cc2)n1 [Example 27, N-tert-Butyl-2-(4-fluorophenyl)-6-(4-propan-2-yl-pyridin-3-yl)-pyridine-4-carboxamide] |

More lines, now with the values behind:

| Structure (SMILES) | Kb |
| --- | --- |
| CC(C)c1ncncc1-c1cc(C(=O)NC2(C)CCS(=O)(=O)C2)cc(-c2ccc(F)cc2)n1 (racemic) [Example 17, (RS)-2-(4-Fluorophenyl)-N-(3-methyl-1,1-dioxothiolan-3-yl)-6-(4-propan-2-yl-pyrimidin-5-yl)-pyridine-4-carboxamide] | 270 nM |
| CC(C)c1ncncc1-c1cc(C(=O)NC(C)(C)C)cc(-c2ccc(Cl)cc2)n1 [Example 1, N-tert-Butyl-2-(4-chlorophenyl)-6-(4-propan-2-yl-pyrimidin-5-yl)-pyridine-4-carboxamide] | 100 nM |
| CC(C)c1ncncc1-c1cc(C(=O)NC(C)(C)C)cc(-c2ccc(F)cc2)n1 [Example 2, N-tert-Butyl-2-(4-fluorophenyl)-6-(4-propan-2-yl-pyrimidin-5-yl)-pyridine-4-carboxamide] | 120 nM |
| CC(C)c1ncncc1-c1cc(C(=O)NC(C)(C)C)cc(-c2ccc(C(F)(F)F)cc2)n1 [Example 3, N-tert-Butyl-2-(4-propan-2-yl-pyrimidin-5-yl)-6-[4-(trifluoromethyl)-phenyl]-pyridine-4-carboxamide] | 110 nM |
| Cc1ccncc1-c1cc(C(=O)NC(C)(C)C)cc(-c2ccc(F)cc2)n1 [Example 4, N-tert-Butyl-2-(4-fluorophenyl)-6-(4-methylpyridin-3-yl)-pyridine-4-carboxamide] | 260 nM |
| Cc1ccncc1-c1cc(C(=O)NC(C)(C)C)cc(-c2ccc(Cl)cc2)n1 [Example 5, N-tert-Butyl-2-(4-chlorophenyl)-6-(4-methylpyridin-3-yl)-pyridine-4-carboxamide] | 220 nM |
| Cc1ccc(-c2cc(C(=O)NC(C)(C)C)cc(-c3cncnc3C(C)C)n2)cc1 [Example 6, N-tert-Butyl-2-(4-methylphenyl)-6-(4-propan-2-yl-pyrimidin-5-yl)-pyridine-4-carboxamide] | 140 nM |
| CC(C)c1ncncc1-c1cc(C(=O)NC(C)(C)C)cc(-c2ccc(F)c(F)c2)n1 [Example 7, N-tert-Butyl-2-(3,4-difluorophenyl)-6-(4-propan-2-yl-pyrimidin-5-yl)-pyridine-4-carboxamide] | 110 nM |
| Cc1cc(-c2cc(C(=O)NC(C)(C)C)cc(-c3cncnc3C(C)C)n2)ccc1F [Example 8, N-tert-Butyl-2-(4-fluoro-3-methylphenyl)-6-(4-propan-2-yl-pyrimidin-5-yl)-pyridine-4-carboxamide] | 260 nM |
| CC(C)c1ncncc1-c1cc(C(=O)NC(C)(C)C)cc(-c2ccc(Cl)c(F)c2)n1 [Example 9, N-tert-Butyl-2-(4-chloro-3-fluorophenyl)-6-(4-propan-2-yl-pyrimidin-5-yl)-pyridine-4-carboxamide] | 260 nM |
| CC(C)c1ncncc1-c1cc(C(=O)NC(C)(C)C)cc(-c2ccc(C3CC3)cc2)n1 [Example 10, N-tert-Butyl-2-(4-cyclopropyl-phenyl)-6-(4-propan-2-yl-pyrimidin-5-yl)-pyridine-4-carboxamide] | 290 nM |
| CC(C)c1ncncc1-c1cc(C(=O)NC(C)(C)C2CC2)cc(-c2ccc(Cl)cc2)n1 [Example 11, 2-(4-Chlorophenyl)-N-(2-cyclopropyl-propan-2-yl)-6-(4-propan-2-yl-pyrimidin-5-yl)-pyridine-4-carboxamide] | 150 nM |
| CC(C)c1ncncc1-c1cc(C(=O)NC(C)(C)C#N)cc(-c2ccc(Cl)cc2)n1 [Example 12, 2-(4-Chlorophenyl)-N-(2-cyanopropan-2-yl)-6-(4-propan-2-yl-pyrimidin-5-yl)-pyridine-4-carboxamide] | 470 nM |
| CC(C)c1ncncc1-c1cc(C(=O)NC(C)(C)CO)cc(-c2ccc(Cl)cc2)n1 [Example 13, 2-(4-Chlorophenyl)-N-(1-hydroxy-2-methylpropan-2-yl)-6-(4-propan-2-yl-pyrimidin-5-yl)-pyridine-4-carboxamide] | 200 nM |
| CC(C)c1ncncc1-c1cc(C(=O)NC(C)(C)C(F)(F)F)cc(-c2ccc(Cl)cc2)n1 [Example 14, 2-(4-Chlorophenyl)-6-(4-propan-2-yl-pyrimidin-5-yl)-N-(1,1,1-trifluoro-2-methylpropan-2-yl)-pyridine-4-carboxamide] | 270 nM |
| COc1ccc(-c2cc(C(=O)NC(C)(C)C)cc(-c3cncnc3C(C)C)n2)cc1 [Example 15, N-tert-Butyl-2-(4-methoxyphenyl)-6-(4-propan-2-yl-pyrimidin-5-yl)-pyridine-4-carboxamide] | 310 nM |
| Cc1ccc(-c2cc(C(=O)NC(C)(C)C)cc(-c3cncnc3C(C)C)n2)cc1F [Example 16, N-tert-Butyl-2-(3-fluoro-4-methylphenyl)-6-(4-propan-2-yl-pyrimidin-5-yl)-pyridine-4-carboxamide] | 250 nM |
